Data on 23 molecules can be found in patent US11192859B2, “Quinoline compounds as modulators of RAGE activity and uses thereof” (NEW YORK UNIVERSITY, priority 2016, dated 2021).

pKd: −log10 of the molar value.

Assay [1] concerns the target binding of RAGE tail (ctRAGE) to DIAPH1 (Homo sapiens (Human), UniProt Q15109). The assay can be described thus: Primary screen (high-throughput): blocking of GFP RAGE tail binding to DIAPH1. To be noted: for inhibition at 10 µM: Table 1; for inhibition at 12.5 µM: Table 2. As for the experimental part:
[…] Compounds that reduced binding of RAGE tail (ctRAGE) by at least 50% were then selected and subjected to 4-point dose response (10 uM, 1 uM, 0.1 uM and 0.01 uM).
• Step 1. Add 50 μl anti-DIAPH1 (1:160 dilution in 0.1M NaHCO3 pH 9.6)/well. Incubate overnight at 4° C. Day 2 • Step 2. Use the plate washer to aspirate anti-DIAPH11 and wash plates 4× with PBS 100 μl per well per wash. • Step 3. Add 180 μl 3% BSA in 1×PBS. Incubate for 1.5 hrs at room temperature Step 4. Use the plate washer to aspirate the blocking solution and wash 5× with PBS 300 μl per well. • Step 5. Add 50 μl of DIAPH1 containing lysate (85 μg) and incubate at RT for 3 hours. • Step 6. Aspirate the lysate and wash the plate 5×(100 μl) on the plate washer. • Step 7. Add 25 μl PBS to the wells. • Step 8. Add 0.5 μL compound per well. • Step 9. Add 24.5 μL GFP RAGE tail (125 nM) into each well for 2 hrs at room temperature. • Step 10. Aspirate and wash 5× with PBS (100 μL) on the plate washer. • Step 11. Add 100 μl PBS in each well. • Step 12. Detection: Read on fluorescence plate reader excitation […] and 485 nm emission
Compounds that blocked the binding of RAGE tail to DIAPH1 by 50% or more were subjected to 4 point dose response: 10 μM, 1 μM, 0.1 μM and 0.01 μM.

Assay [2] has as its target ctRAGE (Homo sapiens (Human), UniProt Q15109). Nature of the assay: Kd determinations (Tables 1 and 2). In kind it is binding. Conditions: Table 2. As for the experimental part: Binding affinities of small molecules for either CT-RAGE or FH1 are determined by performing fluorescence titrations to generate binding isotherms and standard SPR experiments.
A number of representative quinoline compounds of this invention are or can be tested for their inhibitory activity.

Sequence of binding of RAGE tail (ctRAGE) to DIAPH1 (Q15109 364-404): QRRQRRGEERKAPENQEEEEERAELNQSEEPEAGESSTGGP
Sequence of ctRAGE (Q15109 23-404 limits assumed): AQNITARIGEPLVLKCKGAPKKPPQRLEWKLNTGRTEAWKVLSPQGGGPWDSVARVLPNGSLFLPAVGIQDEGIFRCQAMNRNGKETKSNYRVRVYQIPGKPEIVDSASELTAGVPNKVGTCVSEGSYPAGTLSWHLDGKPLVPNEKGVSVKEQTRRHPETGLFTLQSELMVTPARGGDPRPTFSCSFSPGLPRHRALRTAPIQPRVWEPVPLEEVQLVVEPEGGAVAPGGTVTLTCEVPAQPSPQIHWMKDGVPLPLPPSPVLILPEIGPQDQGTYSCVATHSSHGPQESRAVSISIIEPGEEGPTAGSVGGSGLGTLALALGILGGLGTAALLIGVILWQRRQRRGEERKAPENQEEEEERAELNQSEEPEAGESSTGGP

The inhibition is the change of the read-out against control, counted positive when it falls. A lower inhibition goes with a weak effect. As to `COC(=O)c1cc(-c2ccc(OC)cc2)nc2ccccc12` [Compound 1], in assay [1], the inhibition at 10 µM worked out at 51%.

For `COC(=O)c1cc(-c2ccccc2)nc2cc(C)ccc12` [Compound 2], at 10 µM the inhibition in assay [1] was 27%. The same measure, in the same setting: for `CCCNC(=O)c1cc(-c2ccc(NC(=O)CC)cc2)nc2ccccc12` [Compound 3] the value was 36%.

Molecule `CC(=O)Nc1ccc(-c2cc(C(=O)NCCN(C)C)c3ccccc3n2)cc1` [Compound 4, 2-(4-Acetamidophenyl)-N-(2-(dimethylamino)ethyl)quinoline-4-carboxamide] showed an inhibition at 10 µM in assay [1] of 45%. Same read-out and setting: in the case of `CC(=O)Nc1ccc(-c2cc(C(=O)N3CCOCC3)c3ccccc3n2)cc1` [Compound 5, N-(4-(4-(Morpholine-4-carbonyl)quinolin-2-yl)phenyl)acetamide] it was 34%. On the same count and under the same terms, in the case of `COCCNC(=O)c1cc(-c2ccc(NC(C)=O)cc2)nc2ccccc12` [Compound 6] it was 17%; in that of `CC(=O)Nc1ccc(-c2cc(C(=O)N3CCCC3)c3ccccc3n2)cc1` [Compound 7], 29%; in that of `COC(=O)c1cc(-c2ccncc2)nc2ccccc12` [Compound 8], 64%. `CC(=O)Nc1ccc(-c2cc(C(=O)O)c3ccccc3n2)cc1` [Compound 9] registered an inhibition at 10 µM in assay [1] of 25%.

For the molecule `COC(=O)c1cc(-c2ccccc2C)nc2ccccc12` [Compound 10], in assay [1], 10 µM produced 28% inhibition.

As for `CNC(=O)c1cc(-c2ccc(C)cc2)nc2ccccc12` [Compound 11], 10 µM produced 34% inhibition in assay [1]. Usually pKd stands for the Kd on a negative log10 scale, so that one unit is a factor of ten. Low values mean a large Kd, high ones a small Kd. With `CC(=O)Nc1ccc(-c2cc(C(=O)N3CCOCC3)c3cccc(Cl)c3n2)cc1` [Compound 101, N-(4-(8-Chloro-4-(morpholine-4-carbonyl)quinolin-2-yl)phenyl)acetamide], the pKd in assay [2] is 4.37. In assay [1], this molecule returned an inhibition at 12.5 µM of 27%. For `CC(=O)Nc1ccc(-c2cc(C(=O)N3CCOCC3)c3cccc(Cl)c3n2)cn1` [Compound 102, N-(5-(8-Chloro-4-(morpholine-4-carbonyl)quinolin-2-yl)pyridin-2-yl)acetamide] the same measures were 4.54 and 37%. For `CC(=O)Nc1ccc(-c2cc(C(=O)N3CCOCC3)c3cccc(Cl)c3n2)nc1` [Compound 103, N-(6-(8-Chloro-4-(morpholine-4-carbonyl)quinolin-2-yl)pyridin-3-yl)acetamide] the same measures were 4.74 and 38%. The matching figures for `CC(=O)Nc1ccc(-c2cc(C(=O)N3CCOCC3)c3cc(Cl)ccc3n2)cc1` [Compound 104, N-(4-(6-Chloro-4-(morpholine-4-carbonyl)quinolin-2-yl)phenyl)acetamide]: 4.22 and 37%.

In turn, `CC(=O)Nc1ccc(-c2cc(C(=O)N3CCOCC3)c3cc(Cl)ccc3n2)cn1` [Compound 105, N-(5-(6-Chloro-4-(morpholine-4-carbonyl)quinolin-2-yl)pyridin-2-yl)acetamide] had a pKd in assay [2] of 4.35. The molecule also displayed an inhibition at 12.5 µM in assay [1] of 32%. For `CC(=O)Nc1ccc(-c2cc(C(=O)N3CCOCC3)c3cc(Cl)ccc3n2)nc1` [Compound 106, N-(6-(6-Chloro-4-(morpholine-4-carbonyl)quinolin-2-yl)pyridin-3-yl)acetamide] the same measures were 4.47 and 35%. For `CC(=O)Nc1ccc(-c2cc(N3CCOCC3)c3ccccc3n2)cc1` [Compound 107, N-(4-(4-Morpholinoquinolin-2-yl)phenyl)acetamide] the same measures were 4.36 and 31%. For the molecule `CC(=O)Nc1ccc(-c2cc(CN3CCOCC3)c3ccccc3n2)cc1` [Compound 108, N-(4-(4-(Morpholinomethyl)quinolin-2-yl)phenyl)acetamide], the pKd in assay [2] was 4.96. The molecule further gave an inhibition at 12.5 µM in assay [1] of 44%. The matching figures for `CC(=O)Nc1ccc(-c2cc(CN3CCOCC3)c3ccccc3n2)nc1` [Compound 109, N-(6-(4-(Morpholinomethyl)quinolin-2-yl)pyridin-3-yl)acetamide]: 5.72 and 20%. `CC(=O)Nc1ccc(-c2cc(CN3CCOCC3)c3cccc(Cl)c3n2)cc1` [Compound 110, N-(4-(8-Chloro-4-(morpholinomethyl)quinolin-2-yl)phenyl)acetamide]: the inhibition at 12.5 µM in assay [1] was 20%. Still for that read-out and setting: for `CC(=O)Nc1ccc(-c2cc(CN3CCOCC3)c3cccc(Cl)c3n2)nc1` [Compound 111, N-(6-(8-Chloro-4-(morpholinomethyl)quinolin-2-yl)pyridin-3-yl)acetamide] the value was 18%; for `CC(=O)Nc1ccc(-c2cc(C(C)N3CCOCC3)c3ccccc3n2)cc1` (centres unmarked) [Compound 112, N-(4-(4-(1-Morpholinoethyl)quinolin-2-yl)phenyl)acetamide], 27%.
